Source: patent publication US8586591B2, “Aminopyrazine derivative and medicine” (Nippon Shinyaku Co., Ltd., priority 2009, dated 2013)
Structures can show the parent of a compound that is named as a salt.

What was measured:
JAK2 tyrosine kinase = target: T1, JAK2 tyrosine kinase (Homo sapiens, UniProt O60674); experiment: Test 1: inhibitory activity to JAK2 tyrosine kinase (ELISA); type: biochemical; conditions: 25 μM ATP in substrate solution, 30° C. for 1 hour, n=2
T1 construct: purchased Carnabioscience Co
T1 sequence (O60674 whole entry): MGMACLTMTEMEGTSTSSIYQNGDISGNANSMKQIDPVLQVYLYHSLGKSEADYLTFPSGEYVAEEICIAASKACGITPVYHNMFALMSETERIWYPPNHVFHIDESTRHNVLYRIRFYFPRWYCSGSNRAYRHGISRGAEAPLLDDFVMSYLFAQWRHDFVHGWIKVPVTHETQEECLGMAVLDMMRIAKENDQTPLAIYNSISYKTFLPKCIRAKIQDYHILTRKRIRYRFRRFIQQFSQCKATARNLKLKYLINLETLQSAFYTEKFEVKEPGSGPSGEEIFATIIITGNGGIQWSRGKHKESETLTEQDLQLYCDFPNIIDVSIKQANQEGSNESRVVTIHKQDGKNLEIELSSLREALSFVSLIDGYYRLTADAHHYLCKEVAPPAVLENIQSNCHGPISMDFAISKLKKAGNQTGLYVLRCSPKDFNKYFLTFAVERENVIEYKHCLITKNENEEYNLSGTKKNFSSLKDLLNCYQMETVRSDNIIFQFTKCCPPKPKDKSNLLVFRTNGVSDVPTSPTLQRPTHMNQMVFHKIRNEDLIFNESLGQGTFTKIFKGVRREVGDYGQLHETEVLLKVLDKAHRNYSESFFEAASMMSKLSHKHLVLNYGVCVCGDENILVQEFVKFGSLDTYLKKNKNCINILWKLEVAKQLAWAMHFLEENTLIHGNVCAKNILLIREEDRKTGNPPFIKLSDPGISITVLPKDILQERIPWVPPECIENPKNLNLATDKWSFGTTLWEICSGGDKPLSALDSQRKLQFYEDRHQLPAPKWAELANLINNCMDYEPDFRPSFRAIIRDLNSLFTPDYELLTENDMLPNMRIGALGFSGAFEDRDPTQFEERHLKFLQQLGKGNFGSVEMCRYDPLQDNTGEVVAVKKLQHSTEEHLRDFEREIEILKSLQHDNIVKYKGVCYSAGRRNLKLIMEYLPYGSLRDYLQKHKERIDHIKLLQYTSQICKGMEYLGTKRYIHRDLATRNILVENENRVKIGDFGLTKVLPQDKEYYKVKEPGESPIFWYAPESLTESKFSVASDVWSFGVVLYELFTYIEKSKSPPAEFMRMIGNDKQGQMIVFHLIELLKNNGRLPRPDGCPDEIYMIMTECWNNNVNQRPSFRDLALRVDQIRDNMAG
Outline: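 Human JAK2 (diluted to 0.75 nM before addition) phosphorylated a biotinylated peptide on streptavidin plates for 1 h at 30 °C. The substrate mix held 625 nM peptide, 25 μM ATP and 25 mM MgCl2 in 15 mM Tris pH 7.5, 0.01% Tween-20 and 1 mM DTT. Phosphotyrosine was detected by HRP antibody/TMB at 450 nm, and IC50 was obtained by non-linear regression; duplicates were run.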

JAK3 tyrosine kinase = target: T2, JAK3 tyrosine kinase (Homo sapiens, UniProt P52333); experiment: Test 1: inhibitory activity to JAK3 tyrosine kinase (ELISA); type: biochemical; conditions: 25 μM ATP in substrate solution, 30° C. for 1 hour, n=2
T2 construct: purchased Carnabioscience Co
T2 sequence (P52333 1-1124): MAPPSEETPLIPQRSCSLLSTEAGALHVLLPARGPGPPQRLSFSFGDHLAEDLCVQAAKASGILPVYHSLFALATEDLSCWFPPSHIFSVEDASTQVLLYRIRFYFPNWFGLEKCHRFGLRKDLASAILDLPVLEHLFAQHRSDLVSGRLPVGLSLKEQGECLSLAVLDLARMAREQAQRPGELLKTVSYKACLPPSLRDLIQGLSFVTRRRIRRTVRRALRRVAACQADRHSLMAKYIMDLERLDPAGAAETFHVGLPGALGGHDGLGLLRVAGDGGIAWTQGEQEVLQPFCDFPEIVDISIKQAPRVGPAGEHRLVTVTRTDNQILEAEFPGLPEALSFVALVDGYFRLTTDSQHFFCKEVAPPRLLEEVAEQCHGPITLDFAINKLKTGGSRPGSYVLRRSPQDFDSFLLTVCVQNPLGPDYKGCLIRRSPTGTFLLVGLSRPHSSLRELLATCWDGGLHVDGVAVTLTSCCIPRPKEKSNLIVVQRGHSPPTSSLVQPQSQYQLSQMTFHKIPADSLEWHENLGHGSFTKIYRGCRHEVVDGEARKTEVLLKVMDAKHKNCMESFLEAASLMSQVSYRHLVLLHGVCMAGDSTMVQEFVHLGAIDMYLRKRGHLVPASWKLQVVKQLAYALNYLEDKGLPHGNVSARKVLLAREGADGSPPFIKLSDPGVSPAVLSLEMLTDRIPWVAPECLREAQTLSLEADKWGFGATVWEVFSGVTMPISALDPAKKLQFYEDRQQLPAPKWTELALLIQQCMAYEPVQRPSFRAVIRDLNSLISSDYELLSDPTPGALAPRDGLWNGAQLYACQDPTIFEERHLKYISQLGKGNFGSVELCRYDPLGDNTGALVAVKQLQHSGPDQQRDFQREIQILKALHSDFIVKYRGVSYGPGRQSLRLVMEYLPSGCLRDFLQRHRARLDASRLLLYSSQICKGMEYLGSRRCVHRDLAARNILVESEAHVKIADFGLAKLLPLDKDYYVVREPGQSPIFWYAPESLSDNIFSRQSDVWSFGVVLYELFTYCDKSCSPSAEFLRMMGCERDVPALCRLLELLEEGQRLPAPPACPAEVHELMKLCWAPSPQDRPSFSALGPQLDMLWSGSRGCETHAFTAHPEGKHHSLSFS
Outline: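 ELISA of JAK3 kinase activity with absorbance read at 450 nm. Compounds were tested from DMSO dilution series at 100-fold the measurement concentrations (1000–0.01 μM), diluted up to 20 times in assay buffer, against a DMSO negative control. IC50 was estimated by non-linear regression of absorbance.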

Structure (SMILES): C[C@H](Nc1nc(Nc2cnccn2)cc(N2CC(C(=O)N3CCCCC3)C2)n1)c1ccc(F)cc1 [Example 195, (S)-(1-{2-[1-(4-Fluorophenyl)ethylamino]-6-(pyrazin-2-ylamino)pyrimidin-4-yl}azetidin-3-yl)(piperidin-1-yl)methanone]
- IC50 (JAK2 tyrosine kinase): 1.2 nM
- IC50 (JAK3 tyrosine kinase): 50 nM

Structure (SMILES): C[C@H](Nc1cc(C(=O)NCCCO)cc(Nc2cnccn2)n1)c1ccc(F)cc1 [Example 172, (S)-2-[1-(4-Fluorophenyl)ethylamino]-N-(3-hydroxypropyl)-6-(pyrazin-2-ylamino)isonicotinamide]
- IC50 (JAK2 tyrosine kinase): 0.85 nM
- IC50 (JAK3 tyrosine kinase): 150 nM

Structure (SMILES): C[C@H](Nc1nc(NCCN(C)C)cc(Nc2cnccn2)n1)c1ccc(F)cc1 [Example 62, (S)—N^4-[2-(Dimethylamino)ethyl]-N^2-[1-(4-fluorophenyl)ethyl]-N^6-(pyrazin-2-yl)pyrimidine-2,4,6-triamine dihydrochloride]
- IC50 (JAK2 tyrosine kinase): 2.2 nM
- IC50 (JAK3 tyrosine kinase): 65 nM

Structure (SMILES): C[C@H](Nc1cc(-c2ccnn2C)cc(Nc2cnccn2)n1)c1ccc(F)cc1 [Example 47, (S)—N^2-[1-(4-Fluorophenyl)ethyl]-4-(1-methyl-1H-pyrazol-5-yl)-N^6-(pyrazin-2-yl)pyridine-2,6-diamine]
- IC50 (JAK2 tyrosine kinase): 12 nM
- IC50 (JAK3 tyrosine kinase): 1300 nM

Structure (SMILES): C[C@H](Nc1nc(Cl)cc(Nc2cnccn2)n1)c1ccc(F)cc1 [Example 9, (S)-6-Chloro-N^2-[1-(4-fluorophenyl)ethyl]-N^4-(pyrazin-2-yl)pyrimidine-2,4-diamine]
- IC50 (JAK2 tyrosine kinase): 16 nM
- IC50 (JAK3 tyrosine kinase): 360 nM

Structure (SMILES): Cn1cc(-c2cc(Nc3cnccn3)nc(NC(CO)c3ccc(F)cc3)c2)cn1 (centres unmarked) [Example 179, 2-(4-Fluorophenyl)-2-[4-(1-methyl-1H-pyrazol-4-yl)-6-(pyrazin-2-ylamino)pyridin-2-ylamino]ethanol]
- IC50 (JAK2 tyrosine kinase): 2.6 nM
- IC50 (JAK3 tyrosine kinase): 330 nM

Structure (SMILES): C[C@H](Nc1nc(Nc2cnccn2)cc(N2C[C@H](O)CC2=O)n1)c1ccc(F)cc1 [Example 67, (R)-1-{2-[(S)-1-(4-Fluorophenyl)ethylamino]-6-(pyrazin-2-ylamino)pyrimidin-4-yl}-4-hydroxypyrrolidin-2-one]
- IC50 (JAK2 tyrosine kinase): 11 nM
- IC50 (JAK3 tyrosine kinase): 470 nM

Structure (SMILES): C[C@H](Nc1nc(Nc2cnccn2)cc(N2CCNC(C(N)=O)C2)n1)c1ccc(F)cc1 (stereo partly drawn) [Example 58, 4-{2-[(S)-1-(4-Fluorophenyl)ethylamino]-6-(pyrazin-2-ylamino)pyrimidin-4-yl}piperazin-2-carboxamide]
- IC50 (JAK2 tyrosine kinase): 0.69 nM
- IC50 (JAK3 tyrosine kinase): 26 nM

Structure (SMILES): C[C@H](Nc1nc(Nc2cnccn2)cc(N2CCC2)n1)c1ccc(F)cc1 [Example 43, (S)-6-(Azetidin-1-yl)-N^2-[1-(4-fluorophenyl)ethyl]-N^4-(pyrazin-2-yl)pyrimidine-2,4-diamine]
- IC50 (JAK2 tyrosine kinase): 1.2 nM
- IC50 (JAK3 tyrosine kinase): 130 nM

Structure (SMILES): C[C@H](Nc1cc(-c2ccc(S(N)(=O)=O)cc2)cc(Nc2cnccn2)n1)c1ccc(F)cc1 [Example 126, (S)-4-{2-[1-(4-Fluorophenyl)ethylamino]-6-(pyrazin-2-ylamino)pyridin-4-yl}benzenesulfonamide]
- IC50 (JAK2 tyrosine kinase): 8.8 nM
- IC50 (JAK3 tyrosine kinase): 630 nM

Structure (SMILES): CC(=O)N[C@H]1CCN(c2cc(Nc3cnccn3)nc(N[C@@H](C)c3ccc(F)cc3)c2)C1 [Example 38, N-{(S)-1-[2-{[(S)-1-(4-Fluorophenyl)ethyl]amino}-6-(pyrazin-2-ylamino)pyridin-4-yl]pyrrolidin-3-yl}acetamide hydrochloride]
- IC50 (JAK2 tyrosine kinase): 2.3 nM
- IC50 (JAK3 tyrosine kinase): 85 nM

Structure (SMILES): C[C@H](Nc1nc(Nc2cnccn2)cc(OCCO)n1)c1ccc(F)cc1 [Example 95, (S)-2-{2-[1-(4-Fluorophenyl)ethylamino]-6-(pyrazin-2-ylamino)pyrimidin-4-yloxy}ethanol hydrochloride]
- IC50 (JAK2 tyrosine kinase): 2.2 nM
- IC50 (JAK3 tyrosine kinase): 110 nM

Structure (SMILES): C[C@H](Nc1nc(Nc2cnccn2)cc(-c2nccs2)n1)c1ccc(F)cc1 [Example 54, (S)—N^2-[1-(4-Fluorophenyl)ethyl]-N^4-(pyrazin-2-yl)-6-(thiazol-2-yl)pyrimidine-2,4-diamine]
- IC50 (JAK2 tyrosine kinase): 22 nM
- IC50 (JAK3 tyrosine kinase): 1800 nM

Structure (SMILES): C[C@H](Nc1nc(NCCN)cc(Nc2cnccn2)n1)c1ccc(F)cc1 [Example 76, (S)—N^4-(2-Aminoethyl)-N^2-[1-(4-fluorophenyl)ethyl]-N^6-(pyrazin-2-yl)pyrimidine-2,4,6-triamine dihydrochloride]
- IC50 (JAK2 tyrosine kinase): 2.5 nM
- IC50 (JAK3 tyrosine kinase): 57 nM

Structure (SMILES): C[C@H](Nc1nc(Nc2cnccn2)cc(-c2ccc3c(c2)OCO3)n1)c1ccc(F)cc1 [Example 92, (S)-6-(Benzo[d]1,3-dioxol-5-yl)-N^2-[1-(4-fluorophenyl)ethyl]-N^4-(pyrazin-2-yl)pyrimidine-2,4-diamine hydrochloride]
- IC50 (JAK2 tyrosine kinase): 9.8 nM
- IC50 (JAK3 tyrosine kinase): 460 nM

Structure (SMILES): COc1ccc(-c2cc(Nc3cnccn3)nc(N[C@@H](C)c3ccc(F)cc3)c2)cc1 [Example 119, (S)—N^2-[1-(4-Fluorophenyl)ethyl]-4-(4-methoxyphenyl)-N^6-(pyrazin-2-yl)pyridine-2,6-diamine hydrochloride]
- IC50 (JAK2 tyrosine kinase): 28 nM
- IC50 (JAK3 tyrosine kinase): 1600 nM

Structure (SMILES): C[C@H](Nc1nc(Nc2cnccn2)cc(N2CC(CN)C2)n1)c1ccc(F)cc1 [Example 230, (S)-6-[3-(Aminomethyl)azetidin-1-yl]-N^2-[1-(4-fluorophenyl)ethyl]-N^4-(pyrazin-2-yl)pyrimidine-2,4-diamine]
- IC50 (JAK2 tyrosine kinase): 1.2 nM
- IC50 (JAK3 tyrosine kinase): 63 nM

Structure (SMILES): C[C@H](Nc1nc(Nc2cnccn2)cc(-c2ccnc(O)c2)n1)c1ccc(F)cc1 [Example 25, (S)-4-{2-[1-(4-Fluorophenyl)ethylamino]-6-(pyrazin-2-ylamino)pyrimidin-4-yl}pyridin-2-ol]
- IC50 (JAK2 tyrosine kinase): 0.97 nM
- IC50 (JAK3 tyrosine kinase): 100 nM

Structure (SMILES): C[C@H](Nc1nc(Nc2cnccn2)cc(-c2cncs2)n1)c1ccc(F)cc1 [Example 49, (S)—N^2-[1-(4-Fluorophenyl)ethyl]-N^4-(pyrazin-2-yl)-6-(thiazol-5-yl)pyrimidine-2,4-diamine]
- IC50 (JAK2 tyrosine kinase): 2.3 nM
- IC50 (JAK3 tyrosine kinase): 170 nM

Structure (SMILES): Cc1cnc(CNc2cc(Nc3cnccn3)nc(N[C@@H](C)c3ccc(F)cc3)n2)cn1 [Example 102, (S)—N^2-[1-(4-Fluorophenyl)ethyl]-N^4-[(5-methylpyrazin-2-yl)methyl]-N^6-(pyrazin-2-yl)pyrimidine-2,4,6-triamine hydrochloride]
- IC50 (JAK2 tyrosine kinase): 2.6 nM
- IC50 (JAK3 tyrosine kinase): 140 nM

Structure (SMILES): C[C@H](Nc1nc(Nc2cnccn2)cc(N2CCC2=O)n1)c1ccc(F)cc1 [Example 45, (S)-1-{2-[1-(4-Fluorophenyl)ethylamino]-6-(pyrazin-2-ylamino)pyrimidin-4-yl}azetidin-2-one]
- IC50 (JAK2 tyrosine kinase): 9 nM
- IC50 (JAK3 tyrosine kinase): 2300 nM

Structure (SMILES): C[C@H](Nc1nc(Nc2cnccn2)cc(N2CCCC(C(N)=O)C2)n1)c1ccc(F)cc1 (stereo partly drawn) [Example 63, 1-{2-[(S)-1-(4-Fluorophenyl)ethylamino]-6-(pyrazin-2-ylamino)pyrimidin-4-yl}piperidin-3-carboxamide hydrochloride]
- IC50 (JAK2 tyrosine kinase): 1 nM
- IC50 (JAK3 tyrosine kinase): 36 nM

Structure (SMILES): C[C@H](Nc1nc(Nc2cnccn2)cc(N2CCNC2=O)n1)c1ccc(F)cc1 [Example 21, (S)-1-{2-[1-(4-Fluorophenyl)ethylamino]-6-(pyrazin-2-ylamino)pyrimidin-4-yl}imidazolidin-2-one hydrochloride]
- IC50 (JAK2 tyrosine kinase): 8.7 nM
- IC50 (JAK3 tyrosine kinase): 950 nM

Structure (SMILES): C[C@H](Nc1nc(Nc2cnccn2)cc(N2CCCC2)n1)c1ccc(F)cc1 [Example 19, (S)—N^2-[1-(4-Fluorophenyl)ethyl]-N^4-(pyrazin-2-yl)-6-(pyrrolidin-1-yl)pyrimidine-2,4-diamine]
- IC50 (JAK2 tyrosine kinase): 2.6 nM
- IC50 (JAK3 tyrosine kinase): 59 nM

Structure (SMILES): C[C@H](Nc1nc(Nc2cnccn2)cc(N2CC(C)(O)C2)n1)c1ccc(F)cc1 [Example 184, (S)-1-{2-[1-(4-Fluorophenyl)ethylamino]-6-(pyrazin-2-ylamino)pyrimidin-4-yl}-3-methylazetidin-3-ol hydrochloride]
- IC50 (JAK2 tyrosine kinase): 0.92 nM
- IC50 (JAK3 tyrosine kinase): 45 nM
